# Measurements: patent US11654132B2, “Methods for treating COVID-19” (priority 2020, dated 2023)
# Where two headings read alike, the source gives them in different places.
# What was measured:
# [1] = system: SARS-CoV; details: in vitro; cited from earlier work
# [2] = system: COVID-19; details: mild to moderate COVID-19 at high risk of progressing to severe disease; cited from earlier work
# [3] = system: SARS-CoVid-2 infection; details: combined with azithromycin; cited from earlier work
# [4] = system: CYP; details: cited from earlier work
# [5] = cited from earlier work; for in vivo activity: oral and/or intravenous administration, prodrug vs active form
# [6] = system: Lipopolysaccharide stimulated IL-1B production; details: ex-vivo; active metabolite; cited from earlier work
# [7] = in vivo
# [8] = molecular target: CYP3A4 (Homo sapiens, UniProt P08684); details: recombinant enzyme system; cited from earlier work
# Chain of CYP3A4 (P08684 whole entry): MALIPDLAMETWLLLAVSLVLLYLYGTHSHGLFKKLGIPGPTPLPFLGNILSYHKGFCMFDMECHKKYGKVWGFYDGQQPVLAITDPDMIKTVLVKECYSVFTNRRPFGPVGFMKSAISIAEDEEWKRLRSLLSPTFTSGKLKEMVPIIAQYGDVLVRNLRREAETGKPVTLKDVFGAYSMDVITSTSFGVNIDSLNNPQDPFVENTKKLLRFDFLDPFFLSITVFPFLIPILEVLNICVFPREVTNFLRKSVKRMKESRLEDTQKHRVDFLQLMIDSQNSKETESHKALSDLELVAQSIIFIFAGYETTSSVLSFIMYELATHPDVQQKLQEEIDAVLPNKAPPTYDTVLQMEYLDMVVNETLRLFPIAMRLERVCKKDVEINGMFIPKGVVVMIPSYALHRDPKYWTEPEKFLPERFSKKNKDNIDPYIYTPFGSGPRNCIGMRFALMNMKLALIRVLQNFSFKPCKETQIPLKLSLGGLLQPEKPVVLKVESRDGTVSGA
# [9] = molecular target: T1, caspase-1 (Homo sapiens, UniProt P29466); details: healthy and disease states; cited from earlier work
# T1 sequence (P29466 120-297 limits assumed): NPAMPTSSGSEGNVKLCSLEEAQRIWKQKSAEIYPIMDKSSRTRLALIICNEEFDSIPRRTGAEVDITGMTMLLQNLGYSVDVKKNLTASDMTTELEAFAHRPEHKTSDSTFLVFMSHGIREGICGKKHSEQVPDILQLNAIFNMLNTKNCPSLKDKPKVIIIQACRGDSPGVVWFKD
# T1 sequence (P29466 317-404 limits assumed): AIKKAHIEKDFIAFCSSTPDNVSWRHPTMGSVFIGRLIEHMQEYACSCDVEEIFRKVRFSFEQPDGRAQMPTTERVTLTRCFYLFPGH
# [10] = system: CD4 T-cell pyroptotic death in HIV-infected lymphoid tissues; details: dose-dependent; cited from earlier work
# [11] = system: IL-1B; details: cited from earlier work
# [12] = dogs at 2000 mg/kg/day; cited from earlier work
# [13] = in vivo; cited from earlier work
# [14] = system: IL-18; details: cited from earlier work; for inhibition of IL-18: during the duration of the study
# [15] = system: chronic HCV; details: cited from earlier work
# [16] = NASH patients; cited from earlier work
# [17] = system: SARS; details: 400 mg and 100 mg added to ribavirin vs historical control; cited from earlier work
# [18] = system: SARS-CoV-2; details: human, in vivo; cited from earlier work
# [19] = in vivo; cited from earlier work; remark: listed apart in the source
# [20] = in vivo; cited from earlier work; remark: listed apart in the source
molecule,measurement,setting,value
Cc1cccc(C)c1OCC(=O)N[C@@H](Cc1ccccc1)[C@@H](O)C[C@H](Cc1ccccc1)NC(=O)[C@H](C(C)C)N1CCCNC1=O [lopinavir],activity against SARS-CoV,[1],in vitro inhibitory activity
imdevimab: monoclonal antibody for COVID-19,efficacy,[2],efficacious
bamlanivimab: monoclonal antibody for COVID-19,efficacy,[2],efficacious
CCN(CCO)CCCC(C)Nc1ccnc2cc(Cl)ccc12 (centres unmarked) [Hydroxychloroquine],viral loads vs control patients,[3],Viral loads appeared to diminish faster
CC(C)(C)C(NC(=O)c1ccc(N)c(Cl)c1)C(=O)N1CCCC1C(=O)NC(C=O)CC(=O)O (centres unmarked) [II],CYP-mediated metabolism as route of clearance,[4]; in vitro studies,not a major route of clearance
same,bioavailability,[5]; active form,poor bioavailability
same,in vivo activity,[5],less than optimal in vivo activity
same,concentration at which Lipopolysaccharide stimulated IL-1B production is 50% suppressed,[6],0.8 µg/mL
CCO[C@@H]1OC(=O)C[C@@H]1NC(=O)[C@@H]1CCCN1C(=O)[C@@H](NC(=O)c1ccc(N)c(Cl)c1)C(C)(C)C [belnacasan],dog dose estimated as multiple of the maximum dose in this study,[7],10-25 times
same,CYP-mediated metabolism as route of clearance,[4],not a major route of clearance
same,in vivo activity,[5],better in vivo activity
same,metabolism by CYP3A4,[8],metabolized by CYP3A4
same,effect of blocking caspase-1,[9],"prevent production of IL-1β, IL-18, and pyroptosis"
same,CD4 T-cell pyroptotic death,[10],Prevents CD4 T-cell
same,suppression of IL-1B,[11]; single oral dose of 400 mg,50%
same,suppression of IL-1B,[11]; single oral dose of 800 mg,80%
same,suppression of IL-1B,[11]; single oral dose of 1600 mg,80%
same,only preclinical finding on toxicity studies,[12],reduction of the heart rate
same,adverse effects reported in humans,[13],"mild and mainly include headache, nausea, lethargy and dizziness"
same,seizure,[13],reported in more than one patient
same,severity of adverse events (CTCAE),[13],mild and of no consequence (grade 1 and 2 by CTCAE criteria)
same,inhibition of IL-18,[14]; 900 mg TID,60%
same,inhibition of IL-18,[14]; 1200 mg TID,60%
same,inhibition of IL-18,[14]; 1800 mg TID,60%
same,inhibition of IL-18 over 14 days as compared to placebo,[14]; healthy controls,gradual but marked inhibition
casirivimab: monoclonal antibody for COVID-19,efficacy,[2],efficacious
CC(C)[C@@]1(C(=O)N[C@H]2CC(=O)O[C@]2(O)CF)CC(c2nccc3ccccc23)=NO1 [Nivocasan],reason for termination of Phase IIb,[15],significant laboratory abnormalities
same,ALT levels,[16],Reductions in ALT levels in NASH
lopinavir—ritonavir,risk of adverse clinical outcomes (ARDS or death) and viral load,[17],reduced the risk of adverse clinical outcomes
same,"clinical symptoms, mortality, viral loads vs standard of care alone",[18],"no improvement in clinical symptoms, mortality, or viral loads"
CCO[C@@H]1OC(=O)C[C@@H]1NC(=O)[C@@H]1CCCN2C(=O)CC[C@H](NC(=O)c3nccc4ccccc34)C(=O)N12 [Pralnacasan],reason for termination in Phase IIb in RA,[19],liver toxicity in animals (102)
same,clinical trial outcome in rheumatoid arthritis and osteoarthritis,[20],"amelioration of RA, but not"
